Measured values published in PubChem BioAssay AID1963451 (Molecular Pharmacology Branch, DTP, NCI, 2024).
pIC50: −log10 of the molar value.

Test system: 521955-158-R6-J3-PDC complex spheroid growth, % test/control
Assay: Anticancer human tumor 521955-158-R6-J3-PDC patient-derived pancreatic carcinoma cell line growth inhibition [Asc]
Conditions: for pIC50: curve of first compound; for viability, T/C: stronger effect = lower value
Summary of the method: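 Spheroid model: tumor line + HUVEC + hMSC. Single agents and combinations; top conc. at/near clinical Cmax (10 microM if undetermined), half-log dilutions. DMSO stocks at 800-fold test concentration.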
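Also: spheroids exposed to compounds for 7 days.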
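For viability, T/C in this document: 100% = DMSO vehicle control wells.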

C#Cc1c(F)ccc2cc(O)cc(-c3ncc4c(N5CC6CCC(C5)N6)nc(OCC56CCCN5CC(F)C6)nc4c3F)c12 (centres undefined) + CNC(C)C(=O)NC1CN(S(=O)(=O)c2cccc(S(=O)(=O)N3CCC4CCC(C(=O)NC(c5ccccc5)c5ccccc5)N4C(=O)C(NC(=O)C(C)NC)C3)c2)CCC2CCC(C(=O)NC(c3ccccc3)c3ccccc3)N2C1=O
pIC50 (second compound 0.00316 µM): 6.94
pIC50 (second compound 0.01 µM): 7.20
pIC50 (second compound 0.0316 µM): 7.25
pIC50 (second compound 0.1 µM): 7.15
pIC50 (second compound 0.316 µM): 7.38
pIC50 (second compound 1 µM): > 7.50
viability, T/C (second compound 0.00316 µM, first compound 0.0316 µM): 57.4%
viability, T/C (second compound 0.00316 µM, first compound 0.1 µM): 45.8%
viability, T/C (second compound 0.00316 µM, first compound 0.316 µM): 46.8%
viability, T/C (second compound 0.00316 µM, first compound 1 µM): 38.4%
viability, T/C (second compound 0.00316 µM, first compound 3.16 µM): 36.3%
viability, T/C (second compound 0.00316 µM, first compound 10 µM): 21.4%
viability, T/C (second compound 0.01 µM, first compound 0.0316 µM): 56.6%
viability, T/C (second compound 0.01 µM, first compound 0.1 µM): 44.7%
viability, T/C (second compound 0.01 µM, first compound 0.316 µM): 38.4%
viability, T/C (second compound 0.01 µM, first compound 1 µM): 34.7%
viability, T/C (second compound 0.01 µM, first compound 3.16 µM): 37%
viability, T/C (second compound 0.01 µM, first compound 10 µM): 25.1%
viability, T/C (second compound 0.0316 µM, first compound 0.0316 µM): 54.9%
viability, T/C (second compound 0.0316 µM, first compound 0.1 µM): 42.8%
viability, T/C (second compound 0.0316 µM, first compound 0.316 µM): 42%
viability, T/C (second compound 0.0316 µM, first compound 1 µM): 33.1%
viability, T/C (second compound 0.0316 µM, first compound 3.16 µM): 25.6%
viability, T/C (second compound 0.0316 µM, first compound 10 µM): 24.9%
viability, T/C (second compound 0.1 µM, first compound 0.0316 µM): 56.5%
viability, T/C (second compound 0.1 µM, first compound 0.1 µM): 46%
viability, T/C (second compound 0.1 µM, first compound 0.316 µM): 38.7%
viability, T/C (second compound 0.1 µM, first compound 1 µM): 38.7%
viability, T/C (second compound 0.1 µM, first compound 3.16 µM): 33.6%
viability, T/C (second compound 0.1 µM, first compound 10 µM): 24.8%
viability, T/C (second compound 0.316 µM, first compound 0.0316 µM): 54.4%
viability, T/C (second compound 0.316 µM, first compound 0.1 µM): 37%
viability, T/C (second compound 0.316 µM, first compound 0.316 µM): 33.1%
viability, T/C (second compound 0.316 µM, first compound 1 µM): 29.7%
viability, T/C (second compound 0.316 µM, first compound 3.16 µM): 33.6%
viability, T/C (second compound 0.316 µM, first compound 10 µM): 18.3%
viability, T/C (second compound 1 µM, first compound 0.0316 µM): 44.9%
viability, T/C (second compound 1 µM, first compound 0.1 µM): 41.7%
viability, T/C (second compound 1 µM, first compound 0.316 µM): 43.5%
viability, T/C (second compound 1 µM, first compound 1 µM): 30.7%
viability, T/C (second compound 1 µM, first compound 3.16 µM): 30.4%
viability, T/C (second compound 1 µM, first compound 10 µM): 21.9%

NC1CCC(NC2CC2c2ccccc2)CC1 (centres undefined) + CCN1C(C(=O)NC23CCC(C(=O)O)(CC2)CC3)C(c2cccc(Cl)c2F)C2(C(=O)Nc3cc(Cl)ccc32)C12CCCCC2
pIC50 (second compound 0.00949 µM): < 7.00
pIC50 (second compound 0.03 µM): < 7.00
pIC50 (second compound 0.0949 µM): < 7.00
pIC50 (second compound 0.3 µM): < 7.00
pIC50 (second compound 0.949 µM): < 7.00
pIC50 (second compound 3 µM): < 7.00
viability, T/C (second compound 0.00949 µM, first compound 0.000316 µM): 112%
viability, T/C (second compound 0.00949 µM, first compound 0.001 µM): 104%
viability, T/C (second compound 0.00949 µM, first compound 0.00316 µM): 90.5%
viability, T/C (second compound 0.00949 µM, first compound 0.01 µM): 105%
viability, T/C (second compound 0.00949 µM, first compound 0.0316 µM): 85.3%
viability, T/C (second compound 0.00949 µM, first compound 0.1 µM): 108%
viability, T/C (second compound 0.03 µM, first compound 0.000316 µM): 111%
viability, T/C (second compound 0.03 µM, first compound 0.001 µM): 106%
viability, T/C (second compound 0.03 µM, first compound 0.00316 µM): 100%
viability, T/C (second compound 0.03 µM, first compound 0.01 µM): 99.6%
viability, T/C (second compound 0.03 µM, first compound 0.0316 µM): 105%
viability, T/C (second compound 0.03 µM, first compound 0.1 µM): 84.7%
viability, T/C (second compound 0.0949 µM, first compound 0.000316 µM): 108%
viability, T/C (second compound 0.0949 µM, first compound 0.001 µM): 118%
viability, T/C (second compound 0.0949 µM, first compound 0.00316 µM): 120%
viability, T/C (second compound 0.0949 µM, first compound 0.01 µM): 127%
viability, T/C (second compound 0.0949 µM, first compound 0.0316 µM): 99.6%
viability, T/C (second compound 0.0949 µM, first compound 0.1 µM): 99.9%
viability, T/C (second compound 0.3 µM, first compound 0.000316 µM): 94.6%
viability, T/C (second compound 0.3 µM, first compound 0.001 µM): 108%
viability, T/C (second compound 0.3 µM, first compound 0.00316 µM): 111%
viability, T/C (second compound 0.3 µM, first compound 0.01 µM): 101%
viability, T/C (second compound 0.3 µM, first compound 0.0316 µM): 110%
viability, T/C (second compound 0.3 µM, first compound 0.1 µM): 102%
viability, T/C (second compound 0.949 µM, first compound 0.000316 µM): 101%
viability, T/C (second compound 0.949 µM, first compound 0.001 µM): 125%
viability, T/C (second compound 0.949 µM, first compound 0.00316 µM): 114%
viability, T/C (second compound 0.949 µM, first compound 0.01 µM): 105%
viability, T/C (second compound 0.949 µM, first compound 0.0316 µM): 113%
viability, T/C (second compound 0.949 µM, first compound 0.1 µM): 96%
viability, T/C (second compound 3 µM, first compound 0.000316 µM): 113%
viability, T/C (second compound 3 µM, first compound 0.001 µM): 109%
viability, T/C (second compound 3 µM, first compound 0.00316 µM): 128%
viability, T/C (second compound 3 µM, first compound 0.01 µM): 104%
viability, T/C (second compound 3 µM, first compound 0.0316 µM): 111%
viability, T/C (second compound 3 µM, first compound 0.1 µM): 88.7%
